In patent US8106055B2, “Substituted amide compounds” (Gruenenthal GmbH, priority 2007, dated 2012):
Where two headings read alike, the source gives them in different places.

Tests used:
[1] = biological target: T1, human bradykinin 1 receptor (B1R) (Homo sapiens, UniProt P46663); assay: Functional investigation on the human bradykinin 1 receptor (B1R), Ca2+ FLIPR assay in CHO K1 hB1R cells; type: cell-based; conditions: test substance 10 μM; for inhibition at 10 µM: CHO-K1, B1R antagonism human, read-out: B1R Ant. h [10 μM] % Inhibition; for B1R Ant. h [10 μM] % Inhibition: B1R antagonism human
T1 construct: expressed in transfected cells; host or cells: CHO K1 cells
T1 sequence (P46663 1-353): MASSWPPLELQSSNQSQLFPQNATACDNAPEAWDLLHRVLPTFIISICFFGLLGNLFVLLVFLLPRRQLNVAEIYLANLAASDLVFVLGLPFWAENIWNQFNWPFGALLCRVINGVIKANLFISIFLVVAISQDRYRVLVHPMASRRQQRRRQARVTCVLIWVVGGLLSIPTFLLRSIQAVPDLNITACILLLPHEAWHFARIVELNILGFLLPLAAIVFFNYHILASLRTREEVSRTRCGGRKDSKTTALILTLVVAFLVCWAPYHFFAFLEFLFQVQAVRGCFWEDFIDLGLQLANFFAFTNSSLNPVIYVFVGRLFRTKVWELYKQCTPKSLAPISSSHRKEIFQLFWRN
Summary of the method: (§1)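 Cells were dye-loaded with Fluo-4 plus probenecid, then test substances added and Ca2+ influx compared with agonist control for % activation. After 10-20 min, EC80 agonist (Lys-Des-Arg9-bradykinin human; Des-Arg9-bradykinin rat) was applied; suppression gave % inhibition and IC50 values.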

[2] = biological target: T2, bradykinin 1 receptor (B1R) of the rat (Rattus norvegicus, UniProt P97583); assay: Functional investigation on the rat bradykinin 1 receptor (B1R), Ca2+ FLIPR assay in CHO K1 rB1R cells; type: cell-based; conditions: test substance 10 μM; for inhibition at 10 µM: CHO-K1, B1R antagonism rat, read-out: B1R Ant. r [10 μM] % Inhibition
T2 construct: expressed in transfected cells; host or cells: CHO K1 cells
T2 sequence (P97583 1-337): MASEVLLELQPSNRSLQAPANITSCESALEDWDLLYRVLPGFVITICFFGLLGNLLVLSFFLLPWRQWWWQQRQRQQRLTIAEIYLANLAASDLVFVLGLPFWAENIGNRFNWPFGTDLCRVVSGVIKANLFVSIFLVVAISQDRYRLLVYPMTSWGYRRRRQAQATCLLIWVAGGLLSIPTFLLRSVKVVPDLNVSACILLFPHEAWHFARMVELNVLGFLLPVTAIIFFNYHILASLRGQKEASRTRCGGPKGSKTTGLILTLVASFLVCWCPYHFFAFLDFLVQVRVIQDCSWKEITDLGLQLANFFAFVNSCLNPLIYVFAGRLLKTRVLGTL
Summary of the method: as §1

human μ opiate receptor = biological target: T3, human μ opiate receptor (Homo sapiens, UniProt P35372); assay: Affinity for the human μ opiate receptor ([3H]-naloxone displacement, CHO-K1 receptor membrane preparation, SPA); type: binding; conditions: test concentration 1 μM; for inhibition at 1 µM: 1.5 h
T3 construct: purchased PerkinElmer Life Sciences, Zaventem, Belgium RB-HOM; host or cells: CHO-K1 cells (membrane preparation)
Summary of the method: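 Scintillation proximity binding on human μ receptor membranes from CHO-K1 cells used 1 nmol/l [3H]-naloxone over 90 min at room temperature in 50 mmol/l Tris-HCl, 0.06% BSA. Percent inhibition was recorded at 1 μM.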

[3] = Table 3, to be read in the same way as Table 1, read-out: μ
[4] = % inhibition compared with the maximum achievable inhibition

T3 sequence (P35372 whole entry): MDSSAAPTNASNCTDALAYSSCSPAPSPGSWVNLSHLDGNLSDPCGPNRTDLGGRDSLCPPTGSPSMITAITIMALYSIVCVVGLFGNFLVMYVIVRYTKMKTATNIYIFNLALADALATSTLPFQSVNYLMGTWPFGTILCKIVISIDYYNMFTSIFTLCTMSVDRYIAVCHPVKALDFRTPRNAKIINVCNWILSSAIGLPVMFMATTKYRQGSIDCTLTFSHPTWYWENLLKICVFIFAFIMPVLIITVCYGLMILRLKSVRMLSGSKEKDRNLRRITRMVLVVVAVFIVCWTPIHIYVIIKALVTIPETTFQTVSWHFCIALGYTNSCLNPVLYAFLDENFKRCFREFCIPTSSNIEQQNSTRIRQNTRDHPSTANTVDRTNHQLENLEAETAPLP

Compound	inhibition at 10 µM ([1]; Ca2+ FLIPR, CHO K1 hB1R cells)	inhibition at 10 µM ([2]; Ca2+ FLIPR, CHO K1 rB1R cells)	inhibition at 1 µM (human μ opiate receptor; [3])	further results
CN(CCOCC(=O)NCC1CCC(C(CCc2ccccc2)N2CCOCC2)CC1)S(=O)(=O)c1c(Cl)cc(Cl)cc1Cl (stereo not drawn) [Example 715, N-((4-(1-morpholino-3-phenylpropyl)cyclohexyl)methyl)-2-(2-(2,4,6-trichloro-N-methylphenylsulfonamido)ethoxy)acetamide]	55%	24%	10%	
CN1CCN(C(CCc2ccccc2)C2CCN(C(=O)COCC3CCc4ccccc4N3S(=O)(=O)c3ccc(Cl)c(Cl)c3)CC2)CC1 (stereo not drawn) [Example 811, 2-((1-(3,4-dichlorophenylsulfonyl)-1,2,3,4-tetrahydroquinolin-2-yl)methoxy)-1-(4-(1-(4-methylpiperazin-1-yl)-3-phenylpropyl)piperidin-1-yl)ethanone]			20%	inhibition at 10 µM [1, 4]: 104%; inhibition at 10 µM [2, 4]: 96%
CN(CCOCC(=O)NC1CCC(C(CCc2ccccc2)N2CCOCC2)CC1)S(=O)(=O)c1c(Cl)cccc1Cl (stereo not drawn) [Example 664, 2-(2-(2,6-dichloro-N-methylphenylsulfonamido)ethoxy)-N-(4-(1-morpholino-3-phenylpropyl)cyclohexyl)acetamide]	70%	11%	5%	
CN1CCN(C(c2ccccc2)C2CCC(NC(=O)COCC3CCCN3S(=O)(=O)c3c(Cl)cc(Cl)cc3Cl)CC2)CC1 (stereo not drawn) [Example 732, N-(4-((4-methylpiperazin-1-yl)(phenyl)methyl)cyclohexyl)-2-((1-(2,4,6-trichlorophenylsulfonyl)pyrrolidin-2-yl)methoxy)acetamide]	100%	84%	61%	
N-((4-(morpholino(phenyl)methyl)cyclohexyl)methyl)-2-((1-(2,4,6-trichlorophenylsulfonyl)piperidin-3-yl)methoxy)acetamide [Example 713]				B1R Ant. h [10 μM] % Inhibition ([1]; Ca2+ FLIPR, CHO K1 hB1R cells): −15%; B1R Ant. r [10 μM] % Inhibition ([2]; B1R antagonism rat, Ca2+ FLIPR, CHO K1 rB1R cells): 16%; μ (human μ opiate receptor; Table 3, to be read in the same way as Table 1): 14 % inhibition
COc1cc(C)c(S(=O)(=O)N(C)CCOCC(=O)NC2CCC(C(c3ccccc3)N3CCOCC3)CC2)c(C)c1 (stereo not drawn) [Example 681, 2-(2-(4-methoxy-N,2,6-trimethylphenylsulfonamido)ethoxy)-N-(4-(morpholino(phenyl)methyl)cyclohexyl)acetamide]	98%	98%	10%	
COc1cc(C)c(S(=O)(=O)N2CCC(OCC(=O)NCC3CCC(C(CCc4ccccc4)N4CCOCC4)CC3)C2)c(C)c1 (stereo not drawn) [Example 725, 2-(1-(4-methoxy-2,6-dimethylphenylsulfonyl)pyrrolidin-3-yloxy)-N-((4-(1-morpholino-3-phenylpropyl)cyclohexyl)methyl)acetamide]	96%	63%	10%	
COc1cc(C)c(S(=O)(=O)N(C)CCOCC(=O)NCC2CCC(C(c3ccccc3)N(C)C)CC2)c(C)c1C (stereo not drawn) [Example 623, N-[4-(dimethylaminophenylmethyl)-cyclohexylmethyl]-2-{2-[(4-methoxy-2,3,6-trimethylbenzenesulfonyl)-methylamino]-ethoxy}-acetamide]		41%		B1R Ant. h [10 μM] % Inhibition ([1]; Ca2+ FLIPR, CHO K1 hB1R cells): 84%; inhibition at 1 µM (human μ opiate receptor; Table 2, read-out: μ receptor): 93%
CN(CCOCC(=O)NCC1CCC(C(c2ccccc2)N2CCOCC2)CC1)S(=O)(=O)c1c(Cl)cc(C(F)(F)F)cc1Cl (stereo not drawn) [Example 727, 2-(2-(2,6-dichloro-N-methyl-4-(trifluoromethyl)phenylsulfonamido)ethoxy)-N-((4-(morpholino(phenyl)methyl)cyclohexyl)methyl)acetamide]	16%	29%	10%	
CN(CCOCC(=O)NC1CCC(C(c2ccccc2)N2CCCC2)CC1)S(=O)(=O)c1c(Cl)cccc1Cl (stereo not drawn) [Example 634, 2-(2-(2,6-dichloro-N-methylphenylsulfonamido)ethoxy)-N-(4-(phenyl(pyrrolidin-1-yl)methyl)cyclohexyl)acetamide]	92%	38%	68%	
CN1CCN(C(c2ccccc2)C2CCC(NC(=O)COCCN(C)S(=O)(=O)c3c(Cl)cc(Cl)cc3Cl)CC2)CC1 (stereo not drawn) [Example 714, N-(4-((4-methylpiperazin-1-yl)(phenyl)methyl)cyclohexyl)-2-(2-(2,4,6-trichloro-N-methylphenylsulfonamido)ethoxy)acetamide]	104%	64%	52%	
CN(CCOCC(=O)NC1CCC(C(CCc2ccccc2)N2CCCCC2)CC1)S(=O)(=O)c1ccc(Cl)cc1Cl (stereo not drawn) [Example 661, 2-(2-(2,4-dichloro-N-methylphenylsulfonamido)ethoxy)-N-(4-(3-phenyl-1-(piperidin-1-yl)propyl)cyclohexyl)acetamide]	73%	25%	21%	
O=C(COCC1CCCN(S(=O)(=O)c2c(Cl)cc(Cl)cc2Cl)C1)NCC1CCC(C(CCc2ccccc2)N2CCCC2)CC1 (stereo not drawn) [Example 759, N-((4-(3-phenyl-1-(pyrrolidin-1-yl)propyl)cyclohexyl)methyl)-2-((1-(2,4,6-trichlorophenylsulfonyl)piperidin-3-yl)methoxy)acetamide]	100%	56%	87%	
CN1CCN(C(c2ccccc2)C2CCC(NC(=O)COCCN(C)S(=O)(=O)c3c(Cl)cc(C(F)(F)F)cc3Cl)CC2)CC1 (stereo not drawn) [Example 690, 2-(2-(2,6-dichloro-N-methyl-4-(trifluoromethyl)phenylsulfonamido)ethoxy)-N-(4-((4-methylpiperazin-1-yl)(phenyl)methyl)cyclohexyl)acetamide]	54%	30%	26%	
O=C(COC1CCN(S(=O)(=O)c2c(Cl)cc(Cl)cc2Cl)C1)NCC1CCC(C(CCc2ccccc2)N2CCCC2)CC1 (stereo not drawn) [Example 723, N-((4-(3-phenyl-1-(pyrrolidin-1-yl)propyl)cyclohexyl)methyl)-2-(1-(2,4,6-trichlorophenylsulfonyl)pyrrolidin-3-yloxy)acetamide]	90%	40%	35%	
COc1cc(C)c(S(=O)(=O)N2CCC(OCC(=O)NC3CCC(C(c4ccccc4)N4CCCC4)CC3)C2)c(C)c1 (stereo not drawn) [Example 629, 2-(1-(4-methoxy-2,6-dimethylphenylsulfonyl)pyrrolidin-3-yloxy)-N-(4-(phenyl(pyrrolidin-1-yl)methyl)cyclohexyl)acetamide]	96%	67%	37%	
COc1cc(C)c(S(=O)(=O)N2CCC(OCC(=O)NCC3CCC(C(CCc4ccccc4)N4CCCC4)CC3)C2)c(C)c1 (stereo not drawn) [Example 726, 2-(1-(4-methoxy-2,6-dimethylphenylsulfonyl)pyrrolidin-3-yloxy)-N-((4-(3-phenyl-1-(pyrrolidin-1-yl)propyl)cyclohexyl)methyl)acetamide]	103%	94%	23%	
CN1CCN(C(c2ccccc2)C2CCC(NC(=O)COCC3CCCN(S(=O)(=O)c4c(Cl)cc(Cl)cc4Cl)C3)CC2)CC1 (stereo not drawn) [Example 742, N-(4-((4-methylpiperazin-1-yl)(phenyl)methyl)cyclohexyl)-2-((1-(2,4,6-trichlorophenylsulfonyl)piperidin-3-yl)methoxy)acetamide]	36%	53%	29%	
